The values that follow are results of earlier work, collected in paper PMC12285096, “Tirzepatide mitigates Stroke-Induced Blood-Brain barrier disruption by modulating Claudin-1 and C/EBP-α pathways” (Molecular Medicine, 2025).

The conditions of this series: cited from earlier work; for BBB penetration (Kp, brain): limited BBB penetration of GLP-1 analogs, ref Rhea et al. [2024], Lee et al. [2023], Hunter and Hölscher [2012], Secher et al. [2014].

In the case of liraglutide, the “BBB penetration (Kp, brain)” value is listed as 0.02–0.05. For the same substance, the “Brain-to-plasma ratio (Kp, brain)” value (in vivo) was 0.03 ± 0.01.
As for semaglutide, the “BBB penetration (Kp, brain)” value is reported as 0.02–0.05.
